Data published in patent US4169141A, “1-Peptidyl derivatives of di-O-aminoglycosyl-1,3-diaminocyclitol antibacterial agents” (priority 1978, dated 1979).

System: Pseudomonas infections caused by known producers of GAT I
Assay: Mouse protection test, Pseudomonas infection
Format: in vivo, CF1 (Carworth Farms) mice
Conditions: CF1 mice 18 to 20 g
Protocol: B. Mouse protection tests were performed in the usual manner using CF1 (Carworth Farms) mice weighing 18 to 20 g. each. […] Thus, the compounds of this invention may be used to control or eradicate susceptible bacterial strains in warm blooded animals, particularly in laboratory animals.

For CN[C@@H]1[C@@H](O)[C@@H](O[C@@H]2[C@@H](O)[C@H](O[C@H]3OC(CN)=CC[C@H]3N)[C@@H](N)C[C@H]2N)OC[C@]1(C)O [sisomicin], the “protection (mouse protection test, PD50)” value was “slight protection”.
